Results: EPA's ToxRefDB 2

Columns and labels:
dog [1] = conditions: Chronic toxicity; beagle; Oral; Feed; dose end: 52 week; group: systemic; systemic / in life observation / clinical signs / [other] + systemic / in life observation / clinical signs / tachycardia + systemic / …
mouse [2] = conditions: Carcinogenicity, cd1, Oral, Feed, dose end: 91 week, group: systemic
rat [3] = conditions: Combined chronic toxicity/carcinogenicity; sprague dawley; Oral; Feed; dose end: 2 year; group: systemic; systemic / in life observation / body weight / body weight gain
dog [4] = conditions: Subchronic oral toxicity in nonrodent, beagle, Feed, dose end: 13 week, group: systemic
rat [5] = conditions: Prenatal developmental toxicity study, sprague dawley, Oral, Gavage/Intubation, dose end: 15 GD
rat [6] = conditions: Combined chronic toxicity/carcinogenicity, sprague dawley, Oral, Feed, dose end: 104 week, group: systemic
rat [7] = conditions: Subchronic oral toxicity in rodents, Tif: RAIf (SPF), Feed, dose end: 13 week, group: systemic, systemic / in life observation / body weight / body weight + systemic / in life observation / body weight / body weight gain + systemic / …
dog [8] = conditions: Chronic toxicity; beagle; Oral; Feed; dose end: 52 week; group: systemic; systemic / pathology gross / heart / discolored + systemic / pathology gross / heart / distended + systemic / pathology gross / heart / …
rat [9] = conditions: Subchronic oral toxicity in rodents, other, Feed, dose end: 92 day, group: systemic
rabbit [10] = conditions: Prenatal developmental toxicity study, new zealand white, Oral, Gavage/Intubation, dose end: 19 GD
rabbit [11] = conditions: Prenatal developmental toxicity study, new zealand white, Oral, Gavage/Intubation, dose end: 19 GD; remark: listed apart in the source
mouse [12] = conditions: Carcinogenicity; b6c3f1; Oral; Feed; dose end: 24 month; group: systemic; systemic / in life observation / body weight / body weight gain
mouse [13] = conditions: Carcinogenicity, b6c3f1, Oral, Feed, dose end: 78 week, group: systemic
rat [14] = conditions: Carcinogenicity, other, Oral, Feed, dose end: 78 week, group: systemic
[15] = systemic / in life observation / body weight / body weight gain + systemic / hematology / erythrocyte (rbc) count differential / erythrocyte…
[16] = systemic / pathology microscopic / kidney / basophilia + systemic / pathology microscopic / kidney / hyperplasia + systemic / hematology / …
[17] = group: developmental, developmental / developmental malformation / bone / incomplete ossification
[18] = group: maternal, reproductive / reproductive performance / aborted / aborted + systemic / in life observation / body weight / body weight gain + systemic / …
[19] = systemic / in life observation / body weight / body weight gain + systemic / in life observation / food consumption / food consumption + …
[20] = systemic / hematology / leukocyte (wbc) count differential / leukocyte (wbc)
[21] = group: developmental, developmental / developmental malformation / bone / delayed ossification
[22] = group: maternal, reproductive / reproductive performance / resorptions / resorptions + systemic / in life observation / clinical signs / discharge on …
[23] = group: maternal, reproductive / reproductive performance / resorptions / resorptions + systemic / in life observation / body weight / body weight + systemic…
[24] = systemic / in life observation / body weight / body weight
[25] = systemic / in life observation / body weight / body weight + systemic / pathology microscopic / liver / carcinoma + systemic / in life …
[26] = systemic / in life observation / body weight / body weight + systemic / pathology microscopic / testes / atrophy
[27] = systemic / pathology microscopic / adrenal gland / adenoma + systemic / in life observation / body weight / body weight + systemic / in life…

`CCNc1nc(Cl)nc(NC(C)C)n1` [Atrazine] was tested, and the LEL (dog [1]) was 33.6 mg/kg/day, the LOAEL (dog [1]) was 33.6 mg/kg/day and the NEL (dog [1]) was 4.97 mg/kg/day. For the same compound, the NOAEL (dog [1]) was 4.97 mg/kg/day, the LOAEL (mouse [2]; systemic / in life observation / body weight / body weight gain) was 194 mg/kg/day and the LEL (mouse [2]; [15]) was 194 mg/kg/day. It also gave an NEL (mouse [2]; [15]) of 38.4 mg/kg/day, an NOAEL (mouse [2]; [15]) of 38.4 mg/kg/day and an LEL (rat [3]) of 25 mg/kg/day. For the same compound, the LOAEL (rat [3]) was 25 mg/kg/day, the NEL (rat [3]) was 3.5 mg/kg/day and the NOAEL (rat [3]) was 3.5 mg/kg/day. The LOAEL (dog [4]; systemic / pathology microscopic / kidney / basophilia + systemic / pathology microscopic / kidney / hyperplasia) was 28.9 mg/kg/day, the LEL (dog [4]; [16]) was 28.9 mg/kg/day and the NEL (dog [4]; [16]) was 3.71 mg/kg/day. For the same compound, the NOAEL (dog [4]; [16]) was 3.71 mg/kg/day, the LEL (rat [5]; [17]) was 5 mg/kg/day and the LOAEL (rat [5]; [17]) was 100 mg/kg/day. For the same compound, the NEL (rat [5]; [17]) was under 5 mg/kg/day, the NOAEL (rat [5]; [17]) was 25 mg/kg/day and the LEL (rat [5]; group: maternal, reproductive / reproductive performance / aborted / aborted) was 25 mg/kg/day. It also gave an NEL (rat [5]; [18]) of 5 mg/kg/day, an NOAEL (rat [5]; [18]) of 25 mg/kg/day and an LOAEL (rat [5]; group: maternal, systemic / in life observation / body weight / body weight gain + systemic / in life observation / food consumption / food consumption) of 100 mg/kg/day. The LOAEL (rat [6]; systemic / in life observation / body weight / body weight gain + systemic / in life observation / food consumption / food consumption) was 25 mg/kg/day, the NEL (rat [6]; [19]) was 0.5 mg/kg/day and the NOAEL (rat [6]; [19]) was 3.5 mg/kg/day. The LEL (rat [6]; systemic / pathology microscopic / mammary gland / adenocarcinoma) was 3.5 mg/kg/day, the LEL (rat [7]) was 34.9 mg/kg/day and the LOAEL (rat [7]) was 34.9 mg/kg/day. It also gave an NEL (rat [7]) of 3.2 mg/kg/day, an NOAEL (rat [7]) of 3.2 mg/kg/day and an LEL (dog [8]) of 24.1 mg/kg/day. It also gave an LOAEL (dog [8]) of 24.1 mg/kg/day, an NEL (dog [8]) of 3.61 mg/kg/day and an NOAEL (dog [8]) of 3.61 mg/kg/day. The LEL (rat [9]; [20]) was 0.659 mg/kg/day, the NEL (rat [9]; [20]) was under 0.659 mg/kg/day and the LOAEL (rat [9]; systemic / in life observation / body weight / body weight + systemic / in life observation / body weight / body weight gain) was 34 mg/kg/day. It also gave an NOAEL (rat [9]; systemic / in life observation / body weight / body weight + systemic / in life observation / body weight / body weight gain + systemic / …) of 3.3 mg/kg/day, an LEL (rabbit [10]; [21]) of 75 mg/kg/day and an LOAEL (rabbit [10]; [21]) of 75 mg/kg/day. It also gave an NEL (rabbit [10]; [21]) of 5 mg/kg/day, an NOAEL (rabbit [10]; [21]) of 5 mg/kg/day and an LEL (rabbit [10]; [22]) of 75 mg/kg/day. The LOAEL (rabbit [10]; [22]) was 75 mg/kg/day, the NEL (rabbit [10]; [22]) was 5 mg/kg/day and the NOAEL (rabbit [10]; [22]) was 5 mg/kg/day. The LEL (rabbit [11]; [21]) was 75 mg/kg/day, the LOAEL (rabbit [11]; [21]) was 75 mg/kg/day and the NEL (rabbit [11]; [21]) was 5 mg/kg/day. It also gave an NOAEL (rabbit [11]; [21]) of 5 mg/kg/day, an LEL (rabbit [11]; [23]) of 75 mg/kg/day and an LOAEL (rabbit [11]; [23]) of 75 mg/kg/day. The NEL (rabbit [11]; [23]) was 5 mg/kg/day and the NOAEL (rabbit [11]; [23]) was 5 mg/kg/day.

`Cc1c(C(=O)O)c(O)cc2c1C(=O)c1c(O)c([C@@H]3O[C@H](CO)[C@@H](O)[C@H](O)[C@H]3O)c(O)c(O)c1C2=O` [Carminic acid] showed an LEL (mouse [12]) of 4500 mg/kg/day, an LOAEL (mouse [12]) of over 9000 mg/kg/day and an NEL (mouse [12]) of under 4500 mg/kg/day. It also gave an NOAEL (mouse [12]) of at least 9000 mg/kg/day.

In the case of `CCOC(=O)C(O)(c1ccc(Cl)cc1)c1ccc(Cl)cc1` [Chlorobenzilate], the LOAEL (mouse [13]; [24]) is reported as 480 mg/kg/day, the NOAEL (mouse [13]; [24]) is reported as under 480 mg/kg/day and the LEL (mouse [13]; [25]) is reported as 480 mg/kg/day. For the same compound, the NEL (mouse [13]; [25]) was under 480 mg/kg/day, the LOAEL (rat [14]; [26]) was 80 mg/kg/day and the NOAEL (rat [14]; [26]) was under 80 mg/kg/day. The LEL (rat [14]; [27]) was 58.8 mg/kg/day and the NEL (rat [14]; [27]) was under 58.8 mg/kg/day.
